{"source": "patent US20030157573A1", "about": "“Use of Axl receptor for diagnosis and treatment of renal disease” (priority 2002, published 2003)", "key": {"[1]": {"test_system": "Normal human fetal lung fibroblasts (WI-38)", "test": "Fibroblast proliferation assay (neutral red staining)", "type": "cell-based", "details": "for decrease in fibroblast proliferation: DFO", "procedure": "(§1) Normal human fetal lung fibroblasts (WI-38, Coriell Cell Repositories) were cultured and sub-cultured in DMEM, supplemented with 10% inactivated fetal bovine serum (FBS), 2 mM L-glutamine, 100 U/ml penicillin, 100 μg/ml streptomycin. Fibroblasts were grown to confluence in 25 cm^2 tissue flasks and sub-cultured after trypsinization (0.5% trypsin-EDTA in Hank's balanced solution without Ca^2+ and Mg^2+) at 37° C. in an atmosphere of 5% CO2. Two ml of trypsin were added to each flask and incubated for 5 min; then cultures were centrifuged (5 min, 1000 rpm) and fresh medium was added to the pellet. Splitting conditions were 1:4-1:6.\nThe proliferation rate of sub-confluent fibroblasts was evaluated by staining with neutral red (BioRad). Fibroblasts were seeded in 96-well plate (6×10^3/well) in 200 μl of supplemented DMEM/10% FBS. After overnight culture, wells were washed twice with supplemented DMEM/20% FBS. Then, either TGF-β (2-20 ng/ml) or deferoxamine mesylate (DFO, which leads to conditions of chemical hypoxia) at a concentration of […] was added in 200 μl of supplemented DMEM/2% FBS for either 16 hours, 24 hours, 72 hours, or 5 days.\nIn the case of glucose treatments, after overnight culture, cell-containing wells were washed twice with supplemented glucose-free DMEM/2% FBS. Working concentrations of glucose (5.5 mM, 15 mM, 27.5 mM, or 55 mM) were prepared by dissolving stock solution (110 mM) in supplemented DMEM without glucose/2% FBS. Prepared solutions of glucose were added to fibroblast cultures for either 24 or 72 hours.\nUpon completion of incubation, cells were stained with 100 μl of 1% neutral red for 2 hours. After washing with cold PBS, fibroblast monolayers were fixed with 200 μl of ethanol-Sorenson buffer solution (1:1) for 10 min. Optical density was measured with an automated spectrophotometer (λ=540 nm)."}, "[2]": {"test_system": "mesangial cells", "details": "together with the extracellular domain of Ax1; blockade of the Gas6-mediated pathway; cited from earlier work"}, "[3]": {"test_system": "Ax1", "details": "vascular smooth muscle cells; cited from earlier work"}, "[4]": {"test_system": "Ax1", "test": "Ax1 immunoprecipitation and anti-phosphotyrosine blot after TGF-β stimulation", "type": "cell-based, rat", "details": "serum starved Rat1 cells, 5 ng/ml TGF-β, 15 min-2 hr", "procedure": "FIG. 3. […] Rat1 cells exposed to TGF-β stimulation (5 ng/ml for 15 minutes, 30 minutes, 60 minutes and 2 hours) were used for immunoprecipitation. Ax1 was immunoprecipited with anti Ax1 M-20. Anti phosphotyrosine antibodies were used to monitor ax1 phosphorylation state following TGF-β treatment (5 ng/ml for 15 minutes-2 hr). Samples in the first and last lane are from cells without TGF-β stimulation.\n(§2) Further experiments were done on Rat1 cells that were serum starved for 24 hr and then stimulated for the indicated time (15 min-2 hr) with 5 ng/ml TGF-β."}, "[5]": {"test_system": "Normal human fetal lung fibroblasts (WI-38)", "test": "Collagen production assay ([3H]-proline incorporation into collagenous proteins)", "type": "cell-based", "details": "concentrations of 2-20 ng/ml", "procedure": "as §1\nCollagen production by confluent fibroblast monolayers was assessed by [^3H]-proline incorporation into collagenous proteins. Fibroblasts were seeded in 24-well tissue culture plates (2×10^4/well) and grown in 1 ml of supplemented DMEM/10%FBS until confluence.\nConfluent fibroblast cultures were incubated with prepared solutions for either 24 or 48 hr. […] The production of collagen was determined as the difference between total [^3H]proline-containing proteins in the sample incubated without collagenase and those left after collagenase digestion. To determine the number of cells in each well, fibroblasts were detached by trypsinization on the last day of the experiment, and counted in a hemocytometer. […]"}, "[6]": {"test_system": "Ax1", "test": "Microarray hybridization of treated human fibroblasts (Fibrosis DNA chip)", "type": "cell-based", "details": "TGF-β treatment of human fibroblasts", "procedure": "Microarray-based analysis of gene expression was based on the analysis of human fibroblasts subject to selected stimuli resulting in changes in extracellular collagen accumulation and proliferation—the hallmarks of fibrosis. According to the present invention, a specific “Fibrosis” DNA chip was first prepared followed by a microarray hybridization experiments with 19 different types of probes. Analysis of the results was carried out by proprietary algorithms, and analysis of the selected set of genes was performed by using bioinformatics and the scienctific literature.\nA dedicated human “Fibrosis” DNA chip was prepared according to assignee's SDGI method (PCT Application Publication No. WO 01/75180) from growth-arrested human fibroblasts.\nProbes for microarray hybridization were derived from these treated fibroblasts. In accordance with the present invention, treatments that are relevant for diabetic nephropathy development were used, such as glucose deprivation or hypoxia (modeling ischemic conditions that develop in fibrotic kidney); high glucose (modeling diabetic hyperglycemia) and TGF-β induction (modeling a fibrotic condition that is characterized by growth factor and cytokine imbalance).\nIn the next step, the RNA from these treated fibroblasts was extracted and used for preparation of probes for microarray hybridization. The scheme of hybridization is presented below: […]"}, "[7]": {"test_system": "Ax1", "test": "Western blot analysis of endogenous Ax1 expression after TGF-β stimulation", "type": "cell-based, rat", "procedure": "FIG. 1. […] Lane 1: NRK 49F cells; Lane2: NRK 49F cells with TGF-β 5 ng/ml, 24 hr; Lane 3: Rat1 cells; Lane4: Rat1 cells+TGF-β 5 ng/ml, 24 hr; Lane 5: W138 cells; Lane 6: HeLa cells; Lane 7: 293 cells.\nFIG. 2. […] Total cell lysates from Rat1 cells exposed to TGF-β stimulation (5 ng/ml for 15 minutes, 30 minutes, 60 minutes and 2 hours) were run on gel and probed with anti Ax1 C20 Ab (Western blot analysis). Samples in the first and last lane are from cells without TGF-β stimulation.\nIn order to verify the chip hybridization results, the response of endogenous Ax1 expression to TGF-β stimulation was monitored by Western blot analysis. Total cellular proteins from various cell lines, (of which Rat1 cell line was also stimulated by TGF-β (5 ng/ml for 24 hr) were extracted, and the expression of Ax1 was analyzed by Western blot analysis. Thirty (30) μg of total cellular lysate were run on an 8% SDS gel.\nas §2"}}, "note": "Counter-ions that a name gives are not always drawn."}
{"compound": "CC(=O)N(O)CCCCCNC(=O)CCC(=O)N(O)CCCCCNC(=O)CCC(=O)N(O)CCCCCN", "note": "[DFO, deferoxamine mesylate]", "values": [{"measurement": "decrease in fibroblast proliferation", "setting": "[1]; after 16 hr incubation", "value": 20, "unit": "%"}, {"measurement": "decrease in fibroblast proliferation", "setting": "[1]; after 5 days of treatment", "value": 80, "unit": "%"}]}
{"compound": "CC(=O)CC(c1ccccc1)c1c(O)c2ccccc2oc1=O", "note": "(stereo not shown) [wafarin]", "values": [{"measurement": "mesangial cell proliferation", "setting": "[2]", "value": "inhibit mesangial cell proliferation"}]}
{"compound": "CCCCc1nc(Cl)c(CO)n1Cc1ccc(-c2ccccc2-c2nn[nH]n2)cc1", "note": "[losartan]", "values": [{"measurement": "effect on angiotensin-stimulated Ax1 expression", "setting": "[3]", "value": "blocked the stimulatory effect of angiotensin on Ax1 expression"}]}
{"compound": "TGF-β", "values": [{"measurement": "increase in the fibroblast proliferation rate", "setting": "[1]; 2 and 20 ng/ml, after 24 hrs treatment", "value": "~60", "unit": "%"}, {"measurement": "Ax1 phosphorylation", "setting": "[4]", "value": "Increase in its phosphorylation"}, {"measurement": "enhancement in collagen production", "setting": "[5]", "value": "110-180%"}, {"measurement": "induction of Ax1 expression", "setting": "[6]", "value": "at least 2 fold"}, {"measurement": "endogenous Ax1 expression (Western blot)", "setting": "[7]; Rat1 cells, TGF-β 5 ng/ml for 24 hr", "value": "slight up-regulation"}, {"measurement": "Ax1 protein level (Western blot)", "setting": "[7]; serum starved Rat1 cells, 5 ng/ml TGF-β, following 15 min", "value": "induces Ax1 protein level"}]}
